Read-outs that look alike come from different tables or passages of the source. Square brackets hold non-standard residues; d marks the D form. Peptide text beside a SMILES is read from it. Phe(2-NO2) = N[C@@H](Cc1ccccc1[N+](=O)[O-])C(=O)O; Phe(3,4,5-F3) = N[C@@H](Cc1cc(F)c(F)c(F)c1)C(=O)O; Phe(3-CF3) = N[C@@H](Cc1cccc(C(F)(F)F)c1)C(=O)O; Phe(F5) = N[C@@H](Cc1c(F)c(F)c(F)c(F)c1F)C(=O)O; Phe(2-CF3) = N[C@@H](Cc1ccccc1C(F)(F)F)C(=O)O; Phe(2,6-F2) = N[C@@H](Cc1c(F)cccc1F)C(=O)O; Bip = N[C@@H](Cc1ccc(-c2ccccc2)cc1)C(=O)O; αMePhe(2-F) = C[C@](N)(Cc1ccccc1F)C(=O)O; Phe(2-CN) = N#Cc1ccccc1C[C@H](N)C(=O)O; Phe(2-Cl) = N[C@@H](Cc1ccccc1Cl)C(=O)O; Phe(2-F) = N[C@@H](Cc1ccccc1F)C(=O)O; Phe(2-Me) = Cc1ccccc1C[C@H](N)C(=O)O; hPhe = N[C@@H](CCc1ccccc1)C(=O)O; Aib = CC(C)(N)C(=O)O

This passage reports EC50 results from patent US20230015478A1, “GLP-1 RECEPTOR AGONISTS HAVING IMPROVED PHARMACOLOGICAL AND DRUG DELIVERY PROPERTIES” (priority 2021, published 2023).

This experiment has as its target T1, hGLP1 receptor (Homo sapiens, UniProt P43220).
T1 construct: expressed in transfected cells; host or cells: HEK (human embryonic kidney) cells co-expressing hGLP1 receptor and CRE-Luciferase
Put plainly: cAMP HTRF agonist assay in HEK cells co-expressing hGLP1 receptor and CRE-Luciferase. It is filed as cell-based. As for the experimental part:
Human embryonic kidney cells (HEK) co-expressing the hGLP1 receptor and CRE-Luciferase construct were used to determine agonist potency in this assay. The cells were thawed briefly at 37° C., transferred to a sterile tube and re-suspended in complete media at 37° C. Cells were centrifuged at 1000 rpm for 5 minutes and cells collected; cells were re-suspended in assay buffer consisting of DPBS (GIBCO) with 500 μM of the phosphodiesterase inhibitor IBMX. […] The optimal cell density was determined to be 1000 cells/well; cells were added to wells in 384-well plates containing appropriate pre-prepared dilutions of compounds (test peptides or reference compound exendin-4), sealed and incubated with CO2 for 30 min. Test peptide solutions were diluted from 10 mM stock solutions; for most peptides an initial run was performed in duplicate from a maximal concentration of 1.0 μM, with 11 concentrations tested for each peptide using serial 1:3 dilution from this maximal concentration. […] The agonist assay was a homogeneous time-resolved fluorescence (HTRF) assay (Cisbio).
Following incubation of the cells for 30 minutes with test or reference peptides, 5 μL of the cAMP acceptor cAMP-d2, prepared previously as a working solution from frozen stock (1:20 dilution), was added to each well of the assay plate, along with 5 μL of anti-cAMP antibody-cryptate working solution (diluted 1:20 from frozen stock). The wells were incubated for 1 hour at room temperature, and fluorescence was then read at 665 and 615 nm with an Envision reader with TRF laser. Data were saved and analyzed using Prism software (GraphPad). Concentration-response analysis was performed using 4-parameter logistic fits of the resulting data, and EC50 values obtained for each test and reference compound.

The mark [1] stands for this setting: cAMP EC50, nM (0.1% albumin), Table 1, 0.1% albumin.

T1 sequence (P43220 24-463): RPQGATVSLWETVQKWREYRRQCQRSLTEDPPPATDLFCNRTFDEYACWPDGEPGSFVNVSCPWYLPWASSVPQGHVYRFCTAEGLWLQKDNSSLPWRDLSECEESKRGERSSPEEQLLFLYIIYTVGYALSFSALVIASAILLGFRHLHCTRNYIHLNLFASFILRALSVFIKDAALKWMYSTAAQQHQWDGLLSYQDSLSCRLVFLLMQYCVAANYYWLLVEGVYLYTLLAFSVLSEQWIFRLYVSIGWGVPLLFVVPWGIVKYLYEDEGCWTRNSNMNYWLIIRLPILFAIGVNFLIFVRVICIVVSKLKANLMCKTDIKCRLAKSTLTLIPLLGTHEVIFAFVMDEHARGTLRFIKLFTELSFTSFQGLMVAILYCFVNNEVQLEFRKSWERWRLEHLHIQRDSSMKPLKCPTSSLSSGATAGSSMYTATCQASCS

One may read the EC50 as the concentration that produces a half-maximal response. Under “cAMP EC50, nM (0.1% albumin), Table 4, 0.1% albumin”, `CC(C)C[C@H](NC(=O)[C@@H](N)Cc1c[nH]cn1)C(=O)NC(C)(C)C(=O)N[C@@H](CC(=O)O)C(=O)NCC(=O)N[C@H](C(=O)N[C@@](C)(Cc1ccccc1F)C(=O)N[C@H](C(=O)N[C@@H](CO)C(=O)N[C@@H](CC(=O)O)C(=O)N[C@@H](Cc1ccc(-c2ccccc2)cc1)C(=O)N[C@@H](Cc1ccc(-c2ccccc2)cc1)C(N)=O)[C@@H](C)O)[C@@H](C)O` [2-9, H2N-His-Leu-Aib-Asp-Gly-Thr-α-MePhe(2-F)-Thr-Ser-Asp-Bip-Bip-C(O)NH2] (H-HL[Aib]DGT[αMePhe(2-F)]TSD[Bip][Bip]-NH2) came in with an EC50 of 6.4 nM.

Under setting [1], `C[C@@H](O)[C@H](NC(=O)CNC(=O)[C@H](CCC(=O)O)NC(=O)C(C)(C)NC(=O)[C@@H](N)Cc1c[nH]cn1)C(=O)N[C@@H](Cc1ccccc1F)C(=O)N[C@H](C(=O)N[C@@H](CO)C(=O)N[C@@H](CC(=O)O)C(=O)N[C@@H](Cc1ccc(-c2ccccc2)cc1)C(=O)N[C@@H](Cc1ccc(-c2ccccc2)cc1)C(N)=O)[C@@H](C)O` [3-1, H2N-His-Aib-Glu-Gly-Thr-Phe(2-F)-Thr-Ser-Asp-Bip-Bip-C(O)NH2] (H-H[Aib]EGT[Phe(2-F)]TSD[Bip][Bip]-NH2) displayed a concentration for a half-maximal effect (EC50) of 0.32 nM.

Take `C[C@@H](O)[C@H](NC(=O)CNC(=O)[C@H](CCC(=O)O)NC(=O)C(C)(C)NC(=O)[C@@H](N)Cc1c[nH]cn1)C(=O)N[C@@H](Cc1ccccc1Cl)C(=O)N[C@H](C(=O)N[C@@H](CO)C(=O)N[C@@H](CC(=O)O)C(=O)N[C@@H](Cc1ccc(-c2ccccc2)cc1)C(=O)N[C@@H](Cc1ccc(-c2ccccc2)cc1)C(N)=O)[C@@H](C)O` [3-2, H2N-His-Aib-Glu-Gly-Thr-Phe(2-Cl)-Thr-Ser-Asp-Bip-Bip-C(O)NH2] (H-H[Aib]EGT[Phe(2-Cl)]TSD[Bip][Bip]-NH2): it took 4.5 nM to reach a half-maximal effect under setting [1] (EC50). Same read-out and setting: as for `C[C@@H](O)[C@H](NC(=O)CNC(=O)[C@H](CCC(=O)O)NC(=O)C(C)(C)NC(=O)[C@@H](N)Cc1c[nH]cn1)C(=O)N[C@@H](Cc1ccccc1C(F)(F)F)C(=O)N[C@H](C(=O)N[C@@H](CO)C(=O)N[C@@H](CC(=O)O)C(=O)N[C@@H](Cc1ccc(-c2ccccc2)cc1)C(=O)N[C@@H](Cc1ccc(-c2ccccc2)cc1)C(N)=O)[C@@H](C)O` [3-3, H2N-His-Aib-Glu-Gly-Thr-Phe(2-CF3)-Thr-Ser-Asp-Bip-Bip-C(O)NH2] (H-H[Aib]EGT[Phe(2-CF3)]TSD[Bip][Bip]-NH2), the figure is 97.1 nM. On the same count and under the same terms, as for `Cc1ccccc1C[C@H](NC(=O)[C@@H](NC(=O)CNC(=O)[C@H](CCC(=O)O)NC(=O)C(C)(C)NC(=O)[C@@H](N)Cc1c[nH]cn1)[C@@H](C)O)C(=O)N[C@H](C(=O)N[C@@H](CO)C(=O)N[C@@H](CC(=O)O)C(=O)N[C@@H](Cc1ccc(-c2ccccc2)cc1)C(=O)N[C@@H](Cc1ccc(-c2ccccc2)cc1)C(N)=O)[C@@H](C)O` [3-4, H2N-His-Aib-Glu-Gly-Thr-Phe(2-CH3)-Thr-Ser-Asp-Bip-Bip-C(O)NH2] (H-H[Aib]EGT[Phe(2-Me)]TSD[Bip][Bip]-NH2), the figure is 9.55 nM. On the same count and under the same terms, under `C[C@@H](O)[C@H](NC(=O)CNC(=O)[C@H](CCC(=O)O)NC(=O)C(C)(C)NC(=O)[C@@H](N)Cc1c[nH]cn1)C(=O)N[C@@H](Cc1ccccc1[N+](=O)[O-])C(=O)N[C@H](C(=O)N[C@@H](CO)C(=O)N[C@@H](CC(=O)O)C(=O)N[C@@H](Cc1ccc(-c2ccccc2)cc1)C(=O)N[C@@H](Cc1ccc(-c2ccccc2)cc1)C(N)=O)[C@@H](C)O` [3-5, H2N-His-Aib-Glu-Gly-Thr-Phe(2-NO2)-Thr-Ser-Asp-Bip-Bip-C(O)NH2] (H-H[Aib]EGT[Phe(2-NO2)]TSD[Bip][Bip]-NH2) stands 6.67 nM; under `C[C@@H](O)[C@H](NC(=O)CNC(=O)[C@H](CCC(=O)O)NC(=O)C(C)(C)NC(=O)[C@@H](N)Cc1c[nH]cn1)C(=O)N[C@@H](Cc1ccccc1C#N)C(=O)N[C@H](C(=O)N[C@@H](CO)C(=O)N[C@@H](CC(=O)O)C(=O)N[C@@H](Cc1ccc(-c2ccccc2)cc1)C(=O)N[C@@H](Cc1ccc(-c2ccccc2)cc1)C(N)=O)[C@@H](C)O` [3-6, H2N-His-Aib-Glu-Gly-Thr-Phe(2-CN)-Thr-Ser-Asp-Bip-Bip-C(O)NH2] (H-H[Aib]EGT[Phe(2-CN)]TSD[Bip][Bip]-NH2), 33.1 nM. `C[C@@H](O)[C@H](NC(=O)CNC(=O)[C@H](CCC(=O)O)NC(=O)C(C)(C)NC(=O)[C@@H](N)Cc1c[nH]cn1)C(=O)N[C@@H](Cc1cccc(C(F)(F)F)c1)C(=O)N[C@H](C(=O)N[C@@H](CO)C(=O)N[C@@H](CC(=O)O)C(=O)N[C@@H](Cc1ccc(-c2ccccc2)cc1)C(=O)N[C@@H](Cc1ccc(-c2ccccc2)cc1)C(N)=O)[C@@H](C)O` [3-7, H2N-His-Aib-Glu-Gly-Thr-Phe(3-CF3)-Thr-Ser-Asp-Bip-Bip-C(O)NH2] (H-H[Aib]EGT[Phe(3-CF3)]TSD[Bip][Bip]-NH2): the midpoint of the response under setting [1], the EC50, lay at 97.5 nM. Take `C[C@@H](O)[C@H](NC(=O)CNC(=O)[C@H](CCC(=O)O)NC(=O)C(C)(C)NC(=O)[C@@H](N)Cc1c[nH]cn1)C(=O)N[C@@H](Cc1c(F)cccc1F)C(=O)N[C@H](C(=O)N[C@@H](CO)C(=O)N[C@@H](CC(=O)O)C(=O)N[C@@H](Cc1ccc(-c2ccccc2)cc1)C(=O)N[C@@H](Cc1ccc(-c2ccccc2)cc1)C(N)=O)[C@@H](C)O` [3-8, H2N-His-Aib-Glu-Gly-Thr-Phe(2,6F)-Thr-Ser-Asp-Bip-Bip-C(O)NH2] (H-H[Aib]EGT[Phe(2,6-F2)]TSD[Bip][Bip]-NH2): the concentration for a half-maximal effect (EC50) (Table 1, cells marked (0% albumin), read-out: cAMP EC50, nM (0% albumin)) stood at 0.16 nM. In the case of `C[C@@H](O)[C@H](NC(=O)CNC(=O)[C@H](CCC(=O)O)NC(=O)C(C)(C)NC(=O)[C@@H](N)Cc1c[nH]cn1)C(=O)N[C@@H](Cc1cc(F)c(F)c(F)c1)C(=O)N[C@H](C(=O)N[C@@H](CO)C(=O)N[C@@H](CC(=O)O)C(=O)N[C@@H](Cc1ccc(-c2ccccc2)cc1)C(=O)N[C@@H](Cc1ccc(-c2ccccc2)cc1)C(N)=O)[C@@H](C)O` [3-9, H2N-His-Aib-Glu-Gly-Thr-Phe(3,4,5-F)-Thr-Ser-Asp-Bip-Bip-C(O)NH2] (H-H[Aib]EGT[Phe(3,4,5-F3)]TSD[Bip][Bip]-NH2), the 50% effective concentration (EC50) under setting [1] turned out to be 44.6 nM. The same measure, in the same setting: as for `C[C@@H](O)[C@H](NC(=O)CNC(=O)[C@H](CCC(=O)O)NC(=O)C(C)(C)NC(=O)[C@@H](N)Cc1c[nH]cn1)C(=O)N[C@@H](Cc1c(F)c(F)c(F)c(F)c1F)C(=O)N[C@H](C(=O)N[C@@H](CO)C(=O)N[C@@H](CC(=O)O)C(=O)N[C@@H](Cc1ccc(-c2ccccc2)cc1)C(=O)N[C@@H](Cc1ccc(-c2ccccc2)cc1)C(N)=O)[C@@H](C)O` [3-10, H2N-His-Aib-Glu-Gly-Thr-Phe(2,3,4,5,6-F)-Thr-Ser-Asp-Bip-Bip-C(O)NH2] (H-H[Aib]EGT[Phe(F5)]TSD[Bip][Bip]-NH2), the figure is 1.8 nM. Turning to `C[C@@H](O)[C@H](NC(=O)CNC(=O)[C@H](CCC(=O)O)NC(=O)C(C)(C)NC(=O)[C@@H](N)Cc1c[nH]cn1)C(=O)N[C@@H](CCc1ccccc1)C(=O)N[C@H](C(=O)N[C@@H](CO)C(=O)N[C@@H](CC(=O)O)C(=O)N[C@@H](Cc1ccc(-c2ccccc2)cc1)C(=O)N[C@@H](Cc1ccc(-c2ccccc2)cc1)C(N)=O)[C@@H](C)O` [3-11, H2N-His-Aib-Glu-Gly-Thr-hPhe-Thr-Ser-Asp-Bip-Bip-C(O)NH2] (H-H[Aib]EGT[hPhe]TSD[Bip][Bip]-NH2), the response under setting [1] was half-maximal at 32.6 nM (EC50).
